From the NIST ThermoML archive (doi:10.1021/je101213p)
Where “and” joins values, the source holds several entries; their conditions need not be identical. Equal entries are not always repeated.

Columns and labels:
[1] = Molar enthalpy of transition or fusion; conditions: DSC
[2] = molar heat capacity at constant pressure; conditions: 101.33 kPa, Liquid, Large sample (1 g) DSC
[3] = DTA

CCCCCC[n+]1ccn(C)c1.O=S(=O)([N-]S(=O)(=O)C(F)(F)F)C(F)(F)F
Conditions	Molar enthalpy of transition or fusion [kcal/mol]	Normal melting temperature [°C]	molar heat capacity at constant pressure
[1], Crystal	6.62	–	–
[2], 302.86 K	–	–	655.92 J/K/mol
[2], 312.83 K	–	–	632.65 J/K/mol and 660.84 J/K/mol
[2], 322.79 K	–	–	666.66 J/K/mol
[2], 322.81 K	–	–	640.7 J/K/mol
[2], 332.76 K	–	–	668 J/K/mol
[2], 332.78 K	–	–	648.76 J/K/mol
[2], 342.73 K	–	–	671.58 J/K/mol
[2], 342.76 K	–	–	657.26 J/K/mol
[2], 352.7 K	–	–	676.95 J/K/mol
[2], 352.72 K	–	–	666.66 J/K/mol
[2], 362.67 K	–	–	683.66 J/K/mol
[2], 362.68 K	–	–	679.18 J/K/mol
[2], 372.64 K	–	–	690.82 J/K/mol
[3], Crystal	–	-1.70	–

CCCCCCCCn1cc[n+](C)c1.O=S(=O)([N-]S(=O)(=O)C(F)(F)F)C(F)(F)F
Conditions	Molar enthalpy of transition or fusion [kcal/mol]	Normal melting temperature [°C]	molar heat capacity at constant pressure [J/K/mol]
[1], Metastable crystal	6.56	–	–
[2], 281.99 K	–	–	693.71
[2], 291.95 K	–	–	695.62
[2], 302.86 K	–	–	690.39
[2], 302.88 K	–	–	692.29
[2], 312.83 K	–	–	705.13
[2], 312.86 K	–	–	705.6
[2], 322.79 K	–	–	714.16
[2], 322.84 K	–	–	719.87
[2], 332.76 K	–	–	719.87
[2], 332.81 K	–	–	732.7
[2], 342.72 K	–	–	725.57
[2], 342.78 K	–	–	748.39
[2], 352.68 K	–	–	730.33
[2], 352.74 K	–	–	757.9
[2], 362.65 K	–	–	736.98
[2], 362.71 K	–	–	767.89
[2], 372.62 K	–	–	742.21
[2], 372.66 K	–	–	779.78
[3], Metastable crystal	–	-23.34	–
